Source: the NIST ThermoML archive (doi:10.1021/je400803f)

Assay: xn = mol fraction of the nth substance listed
Details: 101 kPa, Liquid, Vibrating tube method

CCCC[N+]1(C)CCCC1.FC(F)(F)C(F)(F)[P-](F)(F)(F)(C(F)(F)C(F)(F)F)C(F)(F)C(F)(F)F + CN(C)C=O
mass density [kg/m3]
Details | 293.15 K | 298.15 K | 303.15 K | 308.15 K | 313.15 K | 318.15 K | 323.15 K
x1 = 0.0165 | 993.84 | 988.9 | 983.96 | 978.95 | 973.88 | 968.76 | 963.52
x1 = 0.0379 | 1045.32 | 1040.31 | 1035.26 | 1030.17 | 1024.98 | 1019.76 | 1014.46
x1 = 0.0636 | 1098.24 | 1093.11 | 1087.96 | 1082.78 | 1077.52 | 1072.2 | 1066.82
x1 = 0.0999 | 1160.65 | 1155.44 | 1150.21 | 1144.9 | 1139.55 | 1134.13 | 1128.66
x1 = 0.1381 | 1214.48 | 1209.17 | 1203.86 | 1198.5 | 1193.09 | 1187.58 | 1182.02
x1 = 0.2002 | 1284.15 | 1278.78 | 1273.37 | 1267.93 | 1262.4 | 1256.85 | 1251.25
x1 = 0.3038 | 1367.83 | 1362.38 | 1356.95 | 1351.43 | 1345.95 | 1340.13 | 1334.59
x1 = 0.3944 | 1420.86 | 1415.36 | 1409.86 | 1404.36 | 1398.78 | 1393.18 | 1387.5
x1 = 0.4946 | 1465.66 | 1460.2 | 1454.71 | 1449.18 | 1443.63 | 1438.04 | 1432.36
x1 = 0.5997 | 1502.25 | 1496.77 | 1491.29 | 1485.78 | 1480.25 | 1474.66 | 1469.03
x1 = 0.6972 | 1529.32 | 1523.85 | 1518.39 | 1512.87 | 1507.34 | 1501.77 | 1496.17
x1 = 0.7887 | 1550.58 | 1545.07 | 1539.56 | 1534.11 | 1528.58 | 1523.04 | 1517.43
x1 = 0.8853 | 1569.6 | 1564.14 | 1558.67 | 1553.16 | 1547.65 | 1542.09 | 1536.51
